In patent US20230085307A1, “PYRIDAZINONE COMPOUND AND HERBICIDE” (NISSAN CHEMICAL CORPORATION, priority 2019, published 2023):

Tests used:
late watergrass = experiment: Test Example 1: herbicidal activity, application before weed generation under submerged conditions (Table 16, symbol A); type: in vivo, late watergrass (Echinochloa oryzicola)
From the text: (§1) [Test Example 1] Herbicidal Activity Test by Application before Weed Generation under Submerged Conditions After alluvial soil was placed into 1/10000 are of Wagner pot, water was poured and mixed to form a submerged condition having a water depth of 4 cm. Seeds of late watergrass, Japanese bulrush, and oval-leafed pondweed were sowed in a mixed manner in the aforementioned pot, and then 2.5 leaf stage rice plant seedlings were transplanted thereto. On the day of sowing seeds, the emulsion agent of the compound of the present invention prepared according to Formulation Example 2 was diluted with water so as to achieve a predetermined herbicide amount, and the diluted emulsion agent was applied to the surface of the water. The pot was placed in a greenhouse at 25° C. to 30° C. for growth of the plants. Three weeks after the herbicide application, the effect of the herbicide on each plant was evaluated according to the following criteria. Evaluation Criteria 5: Herbicidal rate of 90% or more (almost completely withered) 4: Herbicidal rate of 70% or more and less than 90% 3: Herbicidal rate of 40% or more and less than 70% 2: Herbicidal rate of 20% or more and less than 40% 1: Herbicidal rate of 5% or more and less than 20% 0: Herbicidal rate of 5% or less (almost no effect)

Japanese bulrush = experiment: Test Example 1: herbicidal activity, application before weed generation under submerged conditions (Table 16, symbol B); type: in vivo, Japanese bulrush (Schoenoplectus juncoides)
In short: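 Alluvial soil was flooded to 4 cm depth, weed seeds were sown mixed and 2.5-leaf rice seedlings were transplanted. On sowing day, the compound's emulsion, diluted in water to a set dose, was applied to the water surface. Plants grew at 25–30 °C and were scored 0–5 after three weeks.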

oval-leafed pondweed = experiment: Test Example 1: herbicidal activity, application before weed generation under submerged conditions (Table 16, symbol C); type: in vivo, oval-leafed pondweed (Monochoria vaginalis)
From the text: as §1

barnyard grass [1] = experiment: Test Example 3: herbicidal effect by foliage application, Wagner pot (Table 18, symbol H); type: in vivo, barnyard grass (Echinochloa crus-galli)
In short: (§2)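 Plants were sown in alluvial soil held under 0.1–0.5 cm standing water and grown 14 days in a greenhouse at 25–30 °C. An emulsifiable formulation, water-diluted to the set dose, was then sprayed onto the foliage, and effects were scored three weeks later using previously defined criteria.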

Chinese sprangletop = experiment: Test Example 3: herbicidal effect by foliage application, Wagner pot (Table 18, symbol D); type: in vivo, chinese sprangletop (Leptochloa chinensis)
In short: as §2

rice flat sedge = experiment: Test Example 3: herbicidal effect by foliage application, Wagner pot (Table 18, symbol E); type: in vivo, rice flat sedge (Cyperus iria)
In short: as §2

southern crabgrass = experiment: Test Example 5: herbicidal effect by foliage application, plastic box (Table 20, symbol F); type: in vivo, southern crabgrass (Digitaria ciliaris); details: foliage application
In short: (§3)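 Plants sown in sterilized diluvial soil and grown 14 days in a greenhouse at 25° C to 30° C, then sprayed on the foliage with the compound's emulsion diluted in water to a predetermined herbicide amount. Injury to weeds and crops scored three weeks after application on a visual rating scale.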

green foxtail = experiment: Test Example 5: herbicidal effect by foliage application, plastic box (Table 20, symbol G); type: in vivo, green foxtail (Setaria viridis); details: foliage application
In short: as §3

barnyard grass [2] = experiment: Test Example 5: herbicidal effect by foliage application, plastic box (Table 20, symbol H); type: in vivo, barnyard grass (Echinochloa crus-galli); details: foliage application
In short: as §3

wild oat = experiment: Test Example 5: herbicidal effect by foliage application, plastic box (Table 20, symbol I); type: in vivo, wild oat (Avena fatua); details: foliage application
In short: as §3

blackgrass = experiment: Test Example 5: herbicidal effect by foliage application, plastic box (Table 20, symbol J); type: in vivo, blackgrass (Alopecurus myosuroides); details: foliage application
In short: as §3

Italian ryegrass = experiment: Test Example 5: herbicidal effect by foliage application, plastic box (Table 20, symbol K); type: in vivo, Italian ryegrass (Lolium multiflorum); details: foliage application
In short: as §3

windgrass = experiment: Test Example 5: herbicidal effect by foliage application, plastic box (Table 20, symbol L); type: in vivo, windgrass (Apera spica-venti); details: foliage application
In short: as §3

velvetleaf = experiment: Test Example 5: herbicidal effect by foliage application, plastic box (Table 20, symbol M); type: in vivo, velvetleaf (Abutilon theophrasti); details: foliage application
In short: as §3

lambsquarters = experiment: Test Example 5: herbicidal effect by foliage application, plastic box (Table 20, symbol O); type: in vivo, lambsquarters (Chenopodium album); details: foliage application
In short: as §3

persian speedwell = experiment: Test Example 5: herbicidal effect by foliage application, plastic box (Table 20, symbol R); type: in vivo, Persian speedwell (Veronica persica); details: foliage application
In short: as §3

[3] = 80 g/ha, 3 weeks after application
[4] = amount of applied herbicide 320 g/ha
[5] = 320 g/ha, three weeks after application

## CC#CCOc1ccc(-c2sc3ccccc3c2-c2c(O)c(C)nn(C)c2=O)cc1 [1-219]
Late watergrass; 80 g/ha applied herbicide
  Herbicidal effect on A: late watergrass (grade 0-5): 5 (Herbicidal rate of 90% or more (almost completely withered))
Japanese bulrush; 80 g/ha applied herbicide
  Herbicidal effect on B: Japanese bulrush (grade 0-5): 3 (Herbicidal rate of 40% or more and less than 70%)
oval-leafed pondweed; 80 g/ha applied herbicide
  Herbicidal effect on C: oval-leafed pondweed (grade 0-5): 3 (Herbicidal rate of 40% or more and less than 70%)
Barnyard grass [1]; 80 g/ha
  herbicidal effect on H (barnyard grass), rating 0-5: 5 (Herbicidal rate of 90% or more (almost completely withered))
Chinese sprangletop; 80 g/ha
  herbicidal effect on D (Chinese sprangletop), rating 0-5: 5 (Herbicidal rate of 90% or more (almost completely withered))
Rice flat sedge; 80 g/ha
  herbicidal effect on E (rice flat sedge), rating 0-5: 3 (Herbicidal rate of 40% or more and less than 70%)
Southern crabgrass; [3]
  effect on southern crabgrass (F): 3 (Herbicidal rate of 40% or more and less than 70%)
Green foxtail; [3]
  effect on green foxtail (G): 5 (Herbicidal rate of 90% or more (almost completely withered))
Barnyard grass [2]; [3]
  effect on barnyard grass (H): 4 (Herbicidal rate of 70% or more and less than 90%)
Wild oat; [3]
  effect on wild oat (I): 1 (Herbicidal rate of 5% or more and less than 20%)
blackgrass; [3]
  effect on blackgrass (J): 4 (Herbicidal rate of 70% or more and less than 90%)
Italian ryegrass; [3]
  effect on Italian ryegrass (K): 5 (Herbicidal rate of 90% or more (almost completely withered))
windgrass; [3]
  effect on windgrass (L): 0 (Herbicidal rate of 5% or less (almost no effect))
velvetleaf; [3]
  effect on velvetleaf (M): 4 (Herbicidal rate of 70% or more and less than 90%)
lambsquarters; [3]
  effect on lambsquarters (O): 5 (Herbicidal rate of 90% or more (almost completely withered))
Persian speedwell; [3]
  effect on persian speedwell (R): 5 (Herbicidal rate of 90% or more (almost completely withered))

## Cc1cc2sc(-c3ccc(OC(F)F)cc3)c(-c3c(O)c(C)nn(C)c3=O)c2cc1C [5-098]
Late watergrass; [4]
  Herbicidal effect, A: late watergrass: 3 (Herbicidal rate of 40% or more and less than 70%)
Japanese bulrush; [4]
  Herbicidal effect, B: Japanese bulrush: 0 (Herbicidal rate of 5% or less (almost no effect))
oval-leafed pondweed; [4]
  Herbicidal effect, C: oval-leafed pondweed: 0 (Herbicidal rate of 5% or less (almost no effect))
Southern crabgrass; [5]
  herbicidal effect on southern crabgrass (F): 0 (Herbicidal rate of 5% or less (almost no effect))
Green foxtail; [5]
  herbicidal effect on green foxtail (G): 0 (Herbicidal rate of 5% or less (almost no effect))
Barnyard grass [2]; [5]
  herbicidal effect on barnyard grass (H): 0 (Herbicidal rate of 5% or less (almost no effect))
Wild oat; [5]
  herbicidal effect on wild oat (I): 0 (Herbicidal rate of 5% or less (almost no effect))
blackgrass; [5]
  herbicidal effect on blackgrass (J): 0 (Herbicidal rate of 5% or less (almost no effect))
Italian ryegrass; [5]
  herbicidal effect on Italian ryegrass (K): 0 (Herbicidal rate of 5% or less (almost no effect))
windgrass; [5]
  herbicidal effect on windgrass (L): 0 (Herbicidal rate of 5% or less (almost no effect))
velvetleaf; [5]
  herbicidal effect on velvetleaf (M): 0 (Herbicidal rate of 5% or less (almost no effect))
lambsquarters; [5]
  herbicidal effect on lambsquarters (O): 0 (Herbicidal rate of 5% or less (almost no effect))
Persian speedwell; [5]
  herbicidal effect on persian speedwell (R): 5 (Herbicidal rate of 90% or more (almost completely withered))

## CCS(=O)(=O)Cc1ccc(-c2sc3ccc(F)cc3c2-c2c(O)c(C)nn(C)c2=O)cc1 [2-335]
Late watergrass; 320 g/ha applied herbicide
  Herbicidal effect on A: late watergrass (grade 0-5): 3 (Herbicidal rate of 40% or more and less than 70%)
Japanese bulrush; 320 g/ha applied herbicide
  Herbicidal effect on B: Japanese bulrush (grade 0-5): 0 (Herbicidal rate of 5% or less (almost no effect))
oval-leafed pondweed; 320 g/ha applied herbicide
  Herbicidal effect on C: oval-leafed pondweed (grade 0-5): 0 (Herbicidal rate of 5% or less (almost no effect))
Barnyard grass [1]; [4]
  herbicidal effect on H: barnyard grass: 5 (Herbicidal rate of 90% or more (almost completely withered))
Chinese sprangletop; [4]
  herbicidal effect on D: Chinese sprangletop: 3 (Herbicidal rate of 40% or more and less than 70%)
Rice flat sedge; [4]
  herbicidal effect on E: rice flat sedge: 5 (Herbicidal rate of 90% or more (almost completely withered))
